Here are results for three compounds from patent publication US10294212B2 (CURADEV PHARMA PRIVATE LTD., priority 2013, dated 2019).

Test [1] addresses Human indoleamine 2,3-dioxygenase1 (hIDO1) (Homo sapiens (Human), UniProt P14902). Briefly: In-vitro IDO1 enzyme assay (conversion of L-tryptophan to KYN). In kind it is biochemical. The note with it: read-out: IC50 (IDO1) Enz. The method, boiled down: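 Kynurenine formation quantified by HPLC absorbance at 360 nm or LC/MS/MS after TCA quench and 15 min at 65 °C. Reaction: 10 nM N-His hIDO1, 30 μM tryptophan, ascorbate/methylene blue/catalase, pH 6.5 phosphate buffer, 37 °C for 30 min. Inhibition relative to 1% DMSO vehicle, fitted to IC50.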

Test [2] has as its target IDO1 in HeLa cells (Homo sapiens (Human), UniProt P14902). Briefly: HeLa cell based IDO1 assay (IFNγ-induced, KYN in supernatant). The method, boiled down: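 Kynurenine in the supernatant, quantified by C-18 HPLC with 360 nm absorbance after TCA hydrolysis (65 °C, 15 min), was the read-out. Compounds (typically 10 μM to 1 nM) were added in HBSS containing 80 μM tryptophan to HeLa cells pre-induced overnight with 50 ng/mL IFNγ. IC50 came from nonlinear fits of % inhibition versus 1% DMSO vehicle.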

Test [3] has as its target Human TDO (hTDO)-transfected CHO-K1 cells (Homo sapiens (Human), UniProt P48775). Briefly: CHO-K1 cell based TDO assay. The note with it: hTDO cellular assay. The procedure, abridged:
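Kynurenine output was read by LC/MS/MS after TCA precipitation and 15 min at 65° C. Before that, CHO-K1 cells stably carrying human TDO2 were incubated 2 h with compounds (typically 31 μM to 10 nM) and 80 μM L-tryptophan in HBSS. Decrease versus DMSO vehicle gave percent inhibition, then IC50.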

Human TDO (hTDO)-transfected CHO-K1 cells, sequence (P48775 whole entry): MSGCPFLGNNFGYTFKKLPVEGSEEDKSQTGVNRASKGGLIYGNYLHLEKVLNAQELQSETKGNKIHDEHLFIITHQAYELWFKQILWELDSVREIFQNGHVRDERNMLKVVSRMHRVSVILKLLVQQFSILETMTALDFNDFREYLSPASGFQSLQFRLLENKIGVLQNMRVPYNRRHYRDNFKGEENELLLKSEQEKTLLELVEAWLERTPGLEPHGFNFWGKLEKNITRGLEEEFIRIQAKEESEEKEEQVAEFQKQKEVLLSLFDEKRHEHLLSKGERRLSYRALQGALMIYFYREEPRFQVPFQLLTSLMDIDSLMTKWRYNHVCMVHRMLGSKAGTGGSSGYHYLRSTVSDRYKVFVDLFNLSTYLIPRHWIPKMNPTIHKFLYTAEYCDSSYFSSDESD
IDO1 in HeLa cells, sequence (P14902 whole entry): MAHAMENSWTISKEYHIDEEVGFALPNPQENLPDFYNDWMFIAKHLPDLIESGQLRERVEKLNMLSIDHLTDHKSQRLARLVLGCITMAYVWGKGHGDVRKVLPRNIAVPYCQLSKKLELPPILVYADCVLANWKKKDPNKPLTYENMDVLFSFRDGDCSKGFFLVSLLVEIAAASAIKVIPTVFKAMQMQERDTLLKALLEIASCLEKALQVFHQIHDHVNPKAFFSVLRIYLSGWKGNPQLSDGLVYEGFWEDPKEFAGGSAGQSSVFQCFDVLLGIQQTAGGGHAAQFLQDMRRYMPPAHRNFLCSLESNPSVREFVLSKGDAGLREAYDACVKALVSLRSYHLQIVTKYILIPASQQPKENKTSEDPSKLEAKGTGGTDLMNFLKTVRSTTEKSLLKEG
Human indoleamine 2,3-dioxygenase1 (hIDO1), sequence (P14902 whole entry): as above

A word on the IC50: it is the concentration needed to halve the response being measured. In the case of `Nc1oc2cnccc2c1Nc1ccc(F)c(Cl)c1` [Compound 2, N^3-(3-Chloro-4-fluoro-phenyl)-furo[2,3-c]pyridine-2,3-diamine], the values for the IC50 in test [1], in test [2] and in test [3] were < 200 nM, < 200 nM and 500 to 2000 nM, respectively.
As to `Nc1oc2c(-c3ccncc3)nccc2c1Nc1ccc(F)c(Cl)c1` [Compound 97, N^3-(3-Chloro-4-fluorophenyl)-7-(pyridin-4-yl)furo[2,3-c]pyridine-2,3-diamine], the IC50 is < 200 nM in test [1], < 200 nM in test [2] and < 500 nM in test [3].
As for `Nc1oc2c(-c3ccncc3)nccc2c1Nc1ccc(F)c(F)c1` [Compound 184, N^3-(3,4-difluorophenyl)-7-(pyridin-4-yl)furo[2,3-c]pyridine-2,3-diamine], the 50% inhibitory concentration (IC50) is < 200 nM in test [1], < 200 nM in test [2] and < 500 nM in test [3].
